Measurements as given in patent US20210177542A1, “POWDER FOR CLEANING AN INTERNAL BODY PART AND/OR AN IMPLANT, METHOD FOR PRODUCING SAID TYPE OF POWDER AND SUITABLE USES” (FERTON HOLDING S.A., priority 2017, published 2021).
Values after ≈ are worked out from the molar mass of the structure shown.

Experiments:
Type in all cases: physicochemical
[1] = Hygroscopicity (moisture absorption) of the powder types; details: sensitivity to moisture during sterilizing
Text: The powders of present disclosure are hygroscopic. According to a preferred embodiment, amorphous silica (silicon dioxide) is therefore added to the powders, especially in a volume ratio of 0.1 to 2.5%. This can reduce or even completely prevent absorption of moisture by the powder during sterilizing. The addition of amorphous silica results in hydrophobic coating for the powder particles, thus counteracting the moisture absorption of the powder particles during the sterilizing process. In less hygroscopic powders, addition of amorphous silica may be reduced or even completely omitted. The following powder types may be classified as hygroscopic: sodium hydrogen carbonate, glycine and erythritol.

Density of the powder = details: Table 1
Text: In another embodiment of the present disclosure, it is provided for the powder to have a density between 0.2 and 3 g/cm^3, preferably between 0.2 and 2.4 g/ cm^3 and particularly preferably between 0.2 and 1.6 g/ cm^3.

[2] = Solubility in water at 20° C.; details: for Solubility in water: Table 2; for solubility: water, Table 1
Text: In this disclosure, substances are classified as water-soluble if more than 1 g of powder can be added per liter. […] The preferred powders have the following properties: […]

SMILES | Classification as hygroscopic [1] | Density (Density of the powder) | Solubility in water [2] | solubility [2]
O=C([O-])O.[Na+] [Sodium bicarbonate, sodium bicarbonate] | hygroscopic | 2.54 g/mL |  | 
OC[C@H]1O[C@H](O[C@H]2O[C@H](CO)[C@@H](O)[C@H](O)[C@H]2O)[C@H](O)[C@@H](O)[C@@H]1O [Trehalose, trehalose] | slightly less sensitive | 1.80 g/mL | 690 g/1 | 690 mg/mL (≈ 2020 mM)
OC[C@@H](O)[C@@H](O)CO [Erythritol, erythritol] | hygroscopic | 1.45 g/mL | 540 g/1 | 540 mg/mL (≈ 4420 mM)
NCC(=O)O [Glycine, glycine] | hygroscopic | 1.61 g/mL |  | 
